Where two headings read alike, the source gives them in different places.
Legend:
[1] = Single compound bioaccessibility: LC–HRMS intensities after in vitro gastrointestinal digestion vs other extractions; format: in vitro ADME; details: whole sample set, Dig vs Org and No_Dig
Protocol: Five grams of each sample underwent in vitro gastrointestinal digestion. The simulated digestion was performed following the three-stage model (oral, gastric, and intestinal phases) proposed by the INFOGEST consortium and described by Minekus et al. [13] with the slight modifications described in [14]. Briefly, during the oral phase (2 min), samples were mixed at 37 °C in a SW-20 water bath (Julabo GmbH, Seelbach, Germany) with an electrolyte solution to simulate salivary fluid and with amylase enzyme. Samples then underwent a gastric phase (2 h) in which they were mixed with simulated gastric fluid and pepsin enzyme. Finally, during the intestinal phase (2 h), samples from the gastric phase were mixed with simulated intestinal fluid, bile salts, and pancreatin. Solutions were adjusted to pH 3 and 7 for the gastric and intestinal phases, respectively, with a MICROpH 2002 pH-meter (CRISON, Carpi, Italy), and the digestion process was stopped by bringing the pH down to 5.4. Samples were then centrifuged at 12,500× g and 0 °C for 10 min in a Heraeus megafuge 11R centrifuge (THERMO electron, Chateau-Gontier (France), and the supernatants were filtered through a 0.45 μm CA syringe filters and immediately stored at −20 °C until further analysis. The digestion process was replicated four times for each sample. Digestion blanks in which the whole sample was replaced with 5 mL of water were also prepared in order to monitor the possible contributions of the enzymes and salts employed during in vitro digestion in the subsequent analytic determinations.
Non-digestion extraction was performed to allow a comparison with the samples digested in vitro. This employed the same temperature and time conditions and the same weight and volume ratios. Samples were extracted at 37 °C for 4 h and 2 min (the whole time for the simulated gastrointestinal digestion) with just Milli-Q water and without enzymes or simulated fluids in order to avoid food matrix degradation due to those components. After this, non-digested samples were centrifuged and filtered in the same way as the digested samples.
Characterization of polyphenols and methylxanthines from all the extract types (Org, Dig, and No_Dig) of the samples was performed with an untargeted metabolomics approach by using a rapid-resolution LC system (RRLC) 1200 series (Agilent Technologies, Waldbronn, Germany), including a binary pump, thermostatized autosampler, column oven, and a DAD detector. The RRLC system was coupled to a 6520 series electrospray ionization (ESI) source with a quadrupole time-of-flight (QTOF) mass spectrometer (Agilent Technologies). Compound separation was performed using an InfinityLab Poroshell 120EC-C18 column (2.1 × 100 mm, particle size of 2.7 μm) with a guard column (2.1 × 5 mm) (Agilent Technologies). […]

in vitro = details: human, Caco-2
Caco-2 cells = details: cited from earlier work; for Papp values: in purified extracts, ref Kosińska et al.

| concentration (log10-intensity) after gastrointestinal digestion in comparison with the other extraction types [1] | Papp (in vitro) [×10⁻⁶ cm/s] | T2 values relative to T1 values (absorption percentage) (Caco-2 cell monolayers; human) | T2 values relative to T1 values (absorption percentage) (Caco-2 cell monolayers) | apparent permeability coefficients (Caco-2 cell monolayers) | detection on the basolateral side (Caco-2 cell monolayers) | Structure (SMILES) | Papp values (Caco-2 cells) [×10⁻⁶ cm/s] | apparent permeability (Caco-2 cells) [×10⁻⁶ cm/s] |
| --- | --- | --- | --- | --- | --- | --- | --- | --- |
| decreased | 3.28 to 30.5 | 1.56-1.86 fold |  |  |  | Oc1cc(O)c2c(c1)O[C@H](c1ccc(O)c(O)c1)[C@H](O)C2 [epicatechin] | 3.38 |  |
| decreased |  |  | 1.63-1.78 fold | 3.28-30.47 × 10^−6 cm/s |  | O.Oc1cc(O)c2c(c1)O[C@H](c1ccc(O)c(O)c1)[C@@H](O)C2 [catechin] | 4.19 | 0.8 |
| higher |  |  |  |  | not detected | Oc1cc(O)c2c(c1)O[C@H](c1ccc(O)c(O)c1)[C@H](O)[C@H]2c1c(O)cc(O)c2c1O[C@H](c1ccc(O)c(O)c1)[C@@H](O)C2 [PCB1, procyanidin B1] |  |  |

| Structure (SMILES) | concentration (log10-intensity) after gastrointestinal digestion in comparison with the other extraction types [1] | Papp (in vitro) [×10⁻⁶ cm/s] | T2 values relative to T1 values (absorption percentage) (Caco-2 cell monolayers; human) | T2 values relative to T1 values (absorption percentage) (Caco-2 cell monolayers) | apparent permeability coefficients (Caco-2 cell monolayers) | detection on the basolateral side (Caco-2 cell monolayers) | Papp values (Caco-2 cells) [×10⁻⁶ cm/s] | apparent permeability (Caco-2 cells) [×10⁻⁶ cm/s] |
| --- | --- | --- | --- | --- | --- | --- | --- | --- |
| Cn1c(=O)c2c(ncn2C)n(C)c1=O [caffeine, reference compound] | slightly decreased |  |  |  |  |  |  |  |

— publication PMC7700373, “Polyphenolic and Methylxanthine Bioaccessibility of Cocoa Bean Shell Functional Biscuits: Metabolomics Approach and Intestinal Permeability through Caco-2 Cell Models” (Antioxidants, 2020)
